In patent US20210308131A1, “Treatment Regimen” (GlaxoSmithKline Intellectual Property Development Limited, priority 2020, published 2021):

Experiments:
[1] = Plasma and pulmonary (ELF, AM) pharmacokinetics after intravenous gepotidacin in healthy adult subjects; type: in vivo, human; conditions: single IV infusion 1000 mg over 2 hours
Method: (§1) Gepotidacin exposures were assessed in plasma and other matrices, such as urine, saliva, epithelial lining fluid (ELF), Alveolar Macrophages (AM), cervix, rectum and pharynx, as follows: • 1. […] Urine, plasma, cervix, rectum and pharynx swabs: • In a Phase 2a, single-center, single-arm, open-label study in the Unites States from July 2018 to January 2019 (see Overcash et al., Open Forum Infectious Diseases, Volume 6, Issue Supplement 2, October 2019, Page S539, https://doi.org/10.1093/ofid/ofz360.1343, incorporated herein by reference in its entirety), a total of 22 female participants with uncomplicated Urinary Tract Infection (uUTI) were enrolled and evaluated for pharmacokinetics (PK), safety, and clinical efficacy. […] Gepotidacin exposures in urine, cervix, rectum and pharynx were assessed.
Plasma, Epithelial Lining Fluid (ELF) and Alveolar Macrophage (AM) PK were assessed following a single IV infusion of 1000 mg gepotidacin over 2 hours. […]

Neisseria gonorrhoeae = conditions: cited from earlier work
[2] = test system: NG isolate from the Phase 2 clinical trial with ParC D86N mutation; type: cell-based, Neisseria gonorrhoeae
Method: 10 mL of an initial bacterial density of 10^6 colony forming units (CFU)/mL was inoculated into the hollow-fiber cartridge (Fibercell Systems, Frederick, Md.), utilizing modified FB medium.
Samples were collected for observation of simulated pharmacokinetic profiles and enumeration of bacterial burden over the study duration. All bacterial samples were plated on drug-free and agar supplemented with 2×the agar MIC value of each respective challenge compound.

[3] = Phase 2a study in female participants with uUTI: urine, plasma, cervix, rectum and pharynx swab PK and safety; type: in vivo, human
Method: as §1
(§2) Saliva, Urine and Plasma concentrations were determined after administration of gepotidacin 750 mg IV (healthy and renally impaired subjects) and 1500 mg orally (healthy and hepatically impaired subjects, as well as uUTI patients). […]

[4] = Single-dose PK (saliva, urine, plasma) in participants with hepatic impairment and matched controls; type: in vivo, human; conditions: 1500 mg orally
Method: as §1, §2

[5] = Safety and pharmacokinetics in healthy adults and adolescents (Example 3); type: in vivo, human
Method: Healthy adults and adolescents within the age ranges of 19-64 and 12-17 years old, respectively, participated in the study.
In Part 1 of the study, gepotidacin was administered with food to healthy adults 18 years) in period 1 (1500 mg oral single dose), followed by period 2 (3000 mg×2 oral doses Q12 h) and period 3 (3000 mg×2 oral doses Q6 h).
In Part 2 of the study, gepotidacin was administered with food to adolescents (12 to <18 years) at the same dose regimens as period 1 (1500 mg oral single dose) and period 3 (3000 mg×2 oral doses Q6 h).

[6] = Single-dose PK (saliva, urine, plasma) in subjects with renal impairment and matched controls; type: in vivo, human
Method: Gepotidacin exposures were assessed in plasma and other matrices, such as urine, saliva, epithelial lining fluid (ELF), Alveolar Macrophages (AM), cervix, rectum and pharynx, as follows: • 1. Plasma, Epithelial Lining Fluid (ELF) and Alveolar Macrophage (AM) samples: A study to evaluate plasma and pulmonary pharmacokinetics (PK) following intravenous administration of gepotidacin in healthy adult subjects was conducted (see M Hossain, EF Dumont. Population Pharmacokinetic Modeling of Plasma and Epithelial Lining Fluid Data for a Novel Antimicrobial Compound. 54th Annual Interscience Conference on Antimicrobial Agents and Chemotherapy Meeting, 5-9 September 2014, Washington, D.C., USA, incorporated herein by reference in its entirety) • 2. Saliva, Urine and plasma samples: • a. A single-dose study to assess the PK of oral gepotidacin in male and female adult participants with varying degrees of hepatic impairment and in matched control participants with normal hepatic function (J. Hands et al. Pharmacokinetics of Gepotidacin in Subjects with Hepatic Impairment. ID Week, 2-6 Oct. 2019, Washington D.C., USA, incorporated herein by reference in its entirety) • b. A single-dose study to assess the PK of gepotidacin in adult subjects with varying degrees of renal impairment and in matched control subjects with normal renal function • 3. Urine, plasma, cervix, rectum and pharynx swabs: • In a Phase 2a, single-center, single-arm, open-label study in the Unites States from July 2018 to January 2019 (see Overcash et al., Open Forum Infectious Diseases, Volume 6, Issue Supplement 2, October 2019, Page S539, https://doi.org/10.1093/ofid/ofz360.1343, incorporated herein by reference in its entirety), a total of 22 female participants with uncomplicated Urinary Tract Infection (uUTI) were enrolled and evaluated for pharmacokinetics (PK), safety, and clinical efficacy. Participants were confined to the clinic from baseline (Days −1 to 1 predose) through on-therapy (Days 1 to 5) and returned as outpatients for test-of-cure (TOC; Days 10 to 13) and follow-up (Day 28±3). Participants received oral gepotidacin 1,500 mg twice daily (BID) for 5 days. […] The majority of participants were white, age ranged from 19 to 60 years, and body mass index ranged from 20.9 to 37.9 kg/m^2. The number of past uUTI episodes ranged from 0 to 10 over the past 12 months across participants; the majority of participants reported episodes. […] Gepotidacin exposures in urine, cervix, rectum and pharynx were assessed.
as §2

[7] = Period 1, 1500 mg oral single dose

## O=c1ccc2ncc(=O)n3c2n1C[C@H]3CN1CCC(NCc2cc3c(cn2)OCCC3)CC1 [gepotidacin, (2R)-2-({4-[(3,4-Dihydro-2H-pyrano[2,3-c]pyridin-6-ylmethyl)amino]-1-piperidinyl}methyl)-1,2-dihydro-3H,8H-2a,5,8a-triazaacenaphthylene-3,8-dione]
[1]
  AM AUC(0-12) relative to ELF: ~97 fold
  AM Cmax relative to ELF: approximately 120 fold
Neisseria gonorrhoeae; number of the 8 participants with D86N-positive baseline urogenital NG isolates
  microbiological successes (bacterial eradication): 5
Neisseria gonorrhoeae; single oral doses of 1.5 g and 3 g
  efficacy (bacterial eradication) against urogenital infection caused by NG: ≥ 95%
Neisseria gonorrhoeae; single oral doses of 1500 and 3000 mg
  safety signals: no unexpected safety signals
Neisseria gonorrhoeae; total number, single oral 1500 or 3000 mg
  participants who failed therapy at the urogenital body site: 3
[2]; gepotidacin-resistant subpopulation on Day 7
  doses preventing amplification of resistance within the system: 4.5 g
[2]; including 2 x 3 g doses 8 or 12 hours apart
  total daily doses that prevented resistance amplification to gepotidacin: ≥ 4500 mg
[2]; simulated single oral dose free-drug plasma profiles, 0.75 to 12 g
  doses sterilizing the system over the seven-day period: ≥ 4.5 g
[3]; 1500 mg BID, uUTI patients, swabs and plasma
  rank order of gepotidacin free-drug concentrations: highest in rectal tissue; followed by cervical tissue, which was similar to plasma concentrations; followed by pharyngeal tissue
[3]; oral 1,500 mg BID for 5 days, 22 female uUTI participants
  discontinuations due to adverse events: no discontinuations due to adverse events
[4]; moderate hepatic impairment
  urinary exposure (AUC[0-48]) relative to matched healthy controls: approximately 3.2 fold
[4]; severe hepatic impairment
  urinary exposure (AUC[0-48]) relative to matched healthy controls: ~3.9 fold
[5]; 1500 mg oral single dose, adults and adolescents, few mild GI AEs
  tolerability: generally well tolerated
[5]; [7]
  maximum concentration (Cmax), adolescents compared to adults: similar
  median area under the curve (AUC), adolescents compared to adults: slightly higher
[5]; Period 3, 3000 mg x 2 Q6 h
  AUC following the second dose, adolescents versus adults: higher
  Cmax following the second dose, adolescents versus adults: similar
[5]; adolescents, 3000 mg x 2 Q6 h
  subjects above the Cmax value of potential clinical concern: 58%
[5]; adults, 3000 mg
  AUC0-t following the first dose, Q12 h versus Q6 h: similar
[5]; adults, 3000 mg x 2
  accumulation ratios, Q6 h compared to Q12 h: Higher
[5]; adults, 3000 mg x 2 Q6 h
  subjects above the Cmax value of potential clinical concern: 46%
[5]; adults, 3000 mg x 2 Q12 h
  subjects above the Cmax value of potential clinical concern: 15%
[5]; in vivo
  safety issues related to QT or AchE-I: No observed safety issues related to QT or AchE-I
[6]; ESRD subjects not on hemodialysis
  gepotidacin dose removed in the urine (fe %): 7.9%
[6]; ESRD subjects on hemodialysis
  gepotidacin dose excreted in the urine: Less than 2%
[6]; moderate renal impairment subjects
  gepotidacin dose removed in the urine (fe %): 22.1%
[6]; normal renal function subjects
  gepotidacin dose removed in the urine (fe %): 37.4%

## CO/N=C(\C(=O)N[C@@H]1C(=O)N2C(C(=O)O)=C(CSc3nc(=O)c(=O)[nH]n3C)CS[C@H]12)c1csc(N)n1 [ceftriaxone, reference compound]
[2]; simulated ciprofloxacin 0.5 g oral, ceftriaxone 0.25 g intramuscular, isolate ciprofloxacin-resistant, ceftriaxone-susceptible
  performance of control in hollow fibre infection model: performed as expected
